# Test results published in patent publication US20210113492A1, “METHOD FOR INHIBITING PROLIFERATION AND METASTASIS OF CANCER CELLS BY USING NAPHTHOQUINONE DERIVATIVE” (National Tsing Hua University, priority 2019, published 2021).
# Assays:
# [1] = tested on: oral squamous cell carcinoma cells (OC3-IV2); experiment: Boyden chamber invasion assay, OC3-IV2; assay type: cell-based, human; conditions: 5, 7.5 and 10 μM, 24 h, dose dependency (FIG. 2A)
# Method: Cells were harvested by […] and resuspended in a serum-free medium with 0.1% BSA. Then, […] of cell suspension (2×10^5 cells) was seeded into the upper insert of SPLInsert with Polyethylene terephthalate (PET) membrane (pore size: 8.0 μm) (SPL Lifesciences, Korea) pre-coated with matrigel (BD Biosciences, San Jose, Calif.). The bottom well of 24-well plate of SPLInsert was filled with cell medium containing 10% FBS with different concentrations of isoplumbagin (5, 7.5 and 10 μM, Experimental group of oral squamous cell carcinoma cells (OC3-IV2); 2.5, 5 and 10 μM, Experimental groups of human primary glioblastoma cells (U87), human non-small cell lung carcinoma cells (H1299), human prostate cancer cells (PC3) and human cervical cancer cells (Hela)) or without isoplumbagin (DMSO added). […] Number of cells was counted using Image J. Relative invasion ability was calculated as cell number per area.
# FIGS. 2A-2E show the inhibitory effect of different doses of isoplumbagin on invasion for oral squamous cell carcinoma cells (OC3-IV2), human primary glioblastoma cells (U87), human non-small cell lung carcinoma cells (H1299), prostate cancer cells (PC3) and cervical cancer cells (Hela) assessed with the Boyden chamber assays. *Compared with solvent control (DMSO). […]
# mitochondrial complex IV = experiment: Mitochondrial complex activity in permeabilized cells (Oroboros); assay type: cell-based, human; conditions: OC3-IV2 permeabilized with 5 μM digitonin; 2.5 μM
# Method: For the cell permeabilization and measurement of mitochondrial complex activity in permeabilized cells using Oroboros Instruments, 5×10^5 cells/mL treated with DMSO or 2.5 μM isoplumbagin suspended in 2 mL MiR05 buffer (110 mM D-sucrose, 0.5 mM EGTA, 3.0 mM MgCl2, 60 mM lactobionic acid, 10 mM KH2PO4, 20 mM taurine, 20 mM HEPES, 1 g/L BSA, pH 7.1) were added in O2k Oxygraph chambers. After cells had stabilized at routine respiration, plasma membrane permeabilization was performed by adding 5 μM digitonin and then O2 consumption rate was measured in response to sequential additions of 10 mM glutamate and 2 mM malate or 10 mM succinate, followed by 5 mM ADP, […], 0.5 μM FCCP, 1 μM rotenone, 1 μM antimycin A, 0.1 mM TMPD, 0.4 mM ascorbate and 5 mM NaN3.
# FIGS. 6A and 6B show the inhibitory effect of isoplumbagin on mitochondrial function and complex IV activity of oral squamous cell carcinoma cells (OC3-IV2). Oxygen consumption rate (OCR) of OC3-IV2 cells treated with DMSO (as control) or 2.5 μM isoplumbagin were measured by Oroboros instruments (FIG. 6A). […] OC3-IV2 cells treated with DMSO or 2.5 μM isoplumbagin were permeabilized with 5 μM digitonin (Dig) and added indicated substrates and inhibitors, and then mitochondria complex I/IV activity were determined by Oroboros instruments (FIG. 6B). […]
# [2] = tested on: human non-small cell lung carcinoma cells (H1299); experiment: Mitochondrial morphology and distribution by immunofluorescence staining, H1299; assay type: cell-based; conditions: 1 μM or 2.5 μM, 24 hours, anti-TOM20 staining
# Method: The effects of isoplumbagin on mitochondrial morphology and distribution of OC3-IV2, U87, H1299 and PC3 cell lines were measured by immunofluorescence staining After OC3-IV2, U87, H1299, and PC3 cells were treated with DMSO, 1 μM, or 2.5 μM isoplumbagin for 24 hours, cells were fixed by 4% (v/v) paraformaldehyde and permeabilized by 0.1% (v/v) Triton X-100. Cells were incubated in blocking buffer containing 1% bovine serum albumin. After blocking, cells were incubated overnight with indicated primary antibodies against TOM20 (a mitochondria marker, sc-11415, Santa Cruz), and then incubated with Alexa Fluor 488-conjugated secondary antibodies (A11001, Invitrogen). Nucleus was stained with DAPI, actin was stained with rhodamine phalloidin (A12379, Invitrogen) and cells were mounted using Prolong Gold reagent (P36930, Invitrogen). 63 images were taken by LSM800 confocal microscopes (Zeiss).
# FIGS. 5A-5D show the effect of isoplumbagin on mitochondrial morphogenesis and distribution of oral squamous cell carcinoma cells (OC3-IV2), human primary glioblastoma cells (U87), human non-small cell lung carcinoma cells (H1299) and human prostate cancer cells (PC3). Cells treated with either solvent control (DMSO) or isoplumbagin were determined by immunofluorescence staining using anti-TOM20 (mitochondria, green) antibody, rhodamine phalloidin (actin, red) and DAPI (nucleus, blue). […]
smiles,measurement,setting,value
"CC1=CC(=O)c2cccc(O)c2C1=O [isoplumbagin, 5-hydroxy-3-methyl-1,4-naphthoquinone]",cancer cells migrating through the membrane (invasion),[1],decrease significantly
same,mitochondrial complex IV activity,mitochondrial complex IV,inhibiting mitochondrial complex IV activity
same,mitochondrial morphogenesis and distribution,[2],can alter the mitochondrial morphogenesis and distribution
